# Results as given in ChEMBL document CHEMBL1201862, “PubChem BioAssay data set” (2004).
# Active and inactive are the calls of the source.
# Experiments:
# INS1 = experiment: beta cell apoptosis inhibitors, cytokine rescue, dose response, luminescence, retest (AID 449756); type: functional, cell-based; settings: Rattus norvegicus;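 further: cell death triggered by IL-1 beta plus TNF-alpha plus IFN-gamma mixture; protective hits raise ATP signal compared with cytokine alone wells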
# P388 = experiment: cells; type: functional; settings: Mus musculus
# P388/ADR = experiment: cells; type: functional; settings: Mus musculus
# SN12K1 = experiment: cells; type: functional; settings: Homo sapiens
# [1] = target: T1, Rac GTPase-activating protein 1 (Homo sapiens, UniProt Q9H0H5); experiment: MgcRacGAP GTPase-activating activity inhibitors, confirmation, biochemical, ADP Hunter fluorescence, primary and confirmatory (AID 624330); type: functional
# T1 sequence (Q9H0H5 whole entry): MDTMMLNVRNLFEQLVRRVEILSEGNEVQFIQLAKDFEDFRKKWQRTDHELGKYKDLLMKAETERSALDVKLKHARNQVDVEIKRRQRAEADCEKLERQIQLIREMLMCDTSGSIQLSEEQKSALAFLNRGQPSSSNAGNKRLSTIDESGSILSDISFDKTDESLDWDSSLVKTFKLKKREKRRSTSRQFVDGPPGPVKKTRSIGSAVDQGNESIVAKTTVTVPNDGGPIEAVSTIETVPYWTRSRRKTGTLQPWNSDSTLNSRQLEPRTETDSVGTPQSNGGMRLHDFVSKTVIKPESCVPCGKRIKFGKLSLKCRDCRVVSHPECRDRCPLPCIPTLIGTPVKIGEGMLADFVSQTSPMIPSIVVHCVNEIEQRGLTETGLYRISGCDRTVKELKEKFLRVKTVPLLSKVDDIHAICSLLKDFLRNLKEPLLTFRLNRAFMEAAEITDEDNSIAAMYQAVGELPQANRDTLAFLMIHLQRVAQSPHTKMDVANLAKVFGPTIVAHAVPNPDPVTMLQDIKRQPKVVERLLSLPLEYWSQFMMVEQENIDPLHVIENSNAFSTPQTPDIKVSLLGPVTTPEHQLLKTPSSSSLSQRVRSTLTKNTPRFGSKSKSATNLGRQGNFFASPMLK
# [2] = Luminescence Cell-Based Dose Retest to Confirm Inhibitors of Cancer Stem Cells. [Related pubchem assays (depositor defined):AID2717, AID2721]; type: functional; settings: Homo sapiens
# [3] = HEp-2 cell cytotoxicity, dose response, cytotoxicity control for RSV inhibitor project, HTS (AID 2410); type: functional; settings: human respiratory syncytial virus
# cells = type: functional
# Cytochrome P450 1A2 = target: T2, Cytochrome P450 1A2 (Homo sapiens, UniProt P05177);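 further: PubChem cytochrome P450 panel assay, CYP1A2 panel member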
# T2 sequence (P05177 whole entry): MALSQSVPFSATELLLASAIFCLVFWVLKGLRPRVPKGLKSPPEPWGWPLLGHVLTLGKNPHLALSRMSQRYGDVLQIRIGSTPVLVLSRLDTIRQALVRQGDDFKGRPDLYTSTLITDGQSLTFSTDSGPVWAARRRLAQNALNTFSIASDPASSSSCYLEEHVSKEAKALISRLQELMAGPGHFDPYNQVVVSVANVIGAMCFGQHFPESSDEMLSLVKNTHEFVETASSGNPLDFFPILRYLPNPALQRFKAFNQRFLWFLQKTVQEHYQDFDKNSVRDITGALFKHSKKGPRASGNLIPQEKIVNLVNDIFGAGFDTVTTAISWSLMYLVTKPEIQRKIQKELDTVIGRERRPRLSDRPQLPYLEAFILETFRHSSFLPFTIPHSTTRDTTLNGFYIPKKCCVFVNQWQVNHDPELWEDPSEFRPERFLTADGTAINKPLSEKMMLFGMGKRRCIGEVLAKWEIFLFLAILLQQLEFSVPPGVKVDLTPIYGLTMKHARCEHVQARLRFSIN
# [4] = target: T3, Corticotropin-releasing factor receptor 2/Corticotropin-releasing factor-binding protein (Homo sapiens, UniProt P24387+Q13324); experiment: Dose Response confirmation of uHTS hits for small molecule antagonists of the CRF-binding protein and CRF-R2 receptor complex.; type: functional; settings: read-out: IC50_Mean
# T3 sequence (Q13324 whole entry): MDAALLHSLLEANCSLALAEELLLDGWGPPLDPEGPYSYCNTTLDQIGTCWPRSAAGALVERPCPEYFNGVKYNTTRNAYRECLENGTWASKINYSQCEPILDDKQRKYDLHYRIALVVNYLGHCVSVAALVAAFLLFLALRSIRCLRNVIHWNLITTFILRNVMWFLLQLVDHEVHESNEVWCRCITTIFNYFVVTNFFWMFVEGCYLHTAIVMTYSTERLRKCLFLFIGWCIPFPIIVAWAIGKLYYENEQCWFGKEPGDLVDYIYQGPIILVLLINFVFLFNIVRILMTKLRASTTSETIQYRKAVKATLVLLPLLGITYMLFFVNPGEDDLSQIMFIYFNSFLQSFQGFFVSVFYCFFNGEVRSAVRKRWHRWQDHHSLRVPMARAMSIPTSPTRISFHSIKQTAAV
# T3 sequence (P24387 whole entry): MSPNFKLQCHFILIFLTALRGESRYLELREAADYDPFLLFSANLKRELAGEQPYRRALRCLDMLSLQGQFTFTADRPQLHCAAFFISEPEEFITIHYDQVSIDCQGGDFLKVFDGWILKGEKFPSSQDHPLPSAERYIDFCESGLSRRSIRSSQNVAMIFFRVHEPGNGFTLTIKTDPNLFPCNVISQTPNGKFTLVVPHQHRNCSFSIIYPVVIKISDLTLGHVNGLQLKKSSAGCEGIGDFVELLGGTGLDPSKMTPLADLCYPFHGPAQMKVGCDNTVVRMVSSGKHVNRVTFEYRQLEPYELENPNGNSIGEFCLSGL
# [5] = target: T3, Corticotropin-releasing factor receptor 2/Corticotropin-releasing factor-binding protein; experiment: activators of CRF receptor 2 with binding protein – uHTS hits, confirmation (AID 602473); type: functional; settings: read-out: EC50_Mean
# Cytochrome P450 2D6 = Cytochrome P450 2D6 (Homo sapiens, UniProt P10635);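 further: CYP2D6 member of a cytochrome P450 panel assay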
# Cytochrome P450 3A4 = Cytochrome P450 3A4 (Homo sapiens, UniProt P08684);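 further: CYP3A4 tested as one member of a cytochrome P450 panel screen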
# Cytochrome P450 3A4, sequence (P08684 whole entry): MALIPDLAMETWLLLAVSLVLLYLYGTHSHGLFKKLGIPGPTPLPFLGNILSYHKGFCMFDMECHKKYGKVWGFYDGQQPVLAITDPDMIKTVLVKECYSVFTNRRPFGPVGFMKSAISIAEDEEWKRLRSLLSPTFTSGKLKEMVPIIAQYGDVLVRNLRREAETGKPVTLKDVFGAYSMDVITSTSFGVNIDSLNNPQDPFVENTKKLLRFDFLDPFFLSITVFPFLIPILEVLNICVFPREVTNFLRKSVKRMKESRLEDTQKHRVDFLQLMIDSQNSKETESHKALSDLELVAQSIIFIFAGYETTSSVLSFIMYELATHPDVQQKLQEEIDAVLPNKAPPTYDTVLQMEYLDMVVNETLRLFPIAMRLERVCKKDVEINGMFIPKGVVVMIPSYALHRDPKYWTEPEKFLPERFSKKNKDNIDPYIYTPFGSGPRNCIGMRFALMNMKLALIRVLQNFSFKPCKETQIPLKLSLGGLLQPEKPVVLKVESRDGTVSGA
# Cytochrome P450 2D6, sequence (P10635 whole entry): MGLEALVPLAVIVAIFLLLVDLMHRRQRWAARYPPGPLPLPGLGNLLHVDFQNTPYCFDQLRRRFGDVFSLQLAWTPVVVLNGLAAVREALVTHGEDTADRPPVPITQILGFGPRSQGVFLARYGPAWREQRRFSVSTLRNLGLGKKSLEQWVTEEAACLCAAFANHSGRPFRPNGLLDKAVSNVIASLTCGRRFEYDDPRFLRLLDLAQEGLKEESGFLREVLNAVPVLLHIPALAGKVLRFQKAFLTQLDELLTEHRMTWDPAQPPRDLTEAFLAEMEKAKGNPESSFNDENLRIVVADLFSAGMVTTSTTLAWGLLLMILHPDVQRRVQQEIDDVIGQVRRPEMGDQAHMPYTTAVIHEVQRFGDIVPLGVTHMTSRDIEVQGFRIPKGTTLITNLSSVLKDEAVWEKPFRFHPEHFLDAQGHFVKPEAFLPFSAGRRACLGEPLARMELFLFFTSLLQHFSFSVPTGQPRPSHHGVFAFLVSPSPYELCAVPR
smiles,measurement,setting,value
Cc1cc(C)cc(Oc2cc(NC(=O)c3cn(C)nc3C)cc([N+](=O)[O-])c2)c1,AC50,INS1,13.5 µM (active)
Nc1ncnc2c1ncn2[C@@H]1O[C@H](COP(=O)(O)O)[C@@H](O)[C@@H]1O,GI50,P388,> 7.93 µM (inactive)
same,GI50,P388/ADR,> 16.1 µM (inactive)
same,GI50,SN12K1,> 50 µM (inactive)
CCOc1ccc(CN2CCN(Cc3c[nH]c4ccccc34)CC2)cc1,AC50,INS1,7.24 µM (active)
same,IC50,[1],93 µM (active)
CCc1ccc(NC(=O)c2cc3c(C)nc4ccccc4c3o2)cc1,AC50,[2],6.51 µM (active)
same,CC50,[3],39.6 µM (active)
CCCCOc1ccc(NC(=O)CN2CCN(CC)CC2)cc1,IC50,[1],71.7 µM (active)
Cc1ccc(/N=N/c2c(C)[nH]n(C(N)=S)c2=O)cc1,IC50,cells,5.24 µM (active)
COc1cc(OC)cc(-c2c(-c3cccs3)c3cc(-c4cc[nH]n4)ccc3n2C)c1,CC50,[3],11.9 µM (active)
COc1ccc2[nH]c3ccc4cc[n+](CCN5CCC(C6CCN(CC[n+]7ccc8ccc9[nH]c%10ccc(OC)cc%10c9c8c7)CC6)CC5)cc4c3c2c1,GI50,P388,0.546 µM (active)
same,GI50,P388/ADR,1.84 µM (inactive)
same,GI50,SN12K1,0.417 µM (active)
CC(=O)N1CCN(CC(O)COc2ccc(Br)cc2)CC1 (stereo not given),IC50,[1],159 µM (active)
Cc1csc(N/N=C/c2ccccn2)n1,AC50,[2],11.2 µM (active)
FC(F)(F)c1ccccc1N=C(S)N1CCc2ccccc2C1,AC50,INS1,8.78 µM (active)
CC(=O)OCC1OC(n2cc(F)c(=O)[nH]c2=O)C(NC(=O)OCc2ccccc2)C(OC(C)=O)C1OC(C)=O (stereo not given),GI50,P388,> 100 µM (inactive)
same,GI50,P388/ADR,> 100 µM (inactive)
same,GI50,SN12K1,> 100 µM (inactive)
C/C(=N\Nc1nc(C)cc(-c2ccccc2)n1)c1ccccc1,AC50,INS1,2.37 µM (active)
C/C(N)=C(/C#N)C(=O)COC(=O)c1cc(-c2cccc3ccccc23)nc2ccccc12,CC50,[3],7.25 µM (active)
C=C1C(=O)C[C@@]23CCC[C@@]12CC(O)C3 (stereo not given in full),GI50,P388,3.61 µM (inactive)
same,GI50,P388/ADR,5.15 µM (inactive)
same,GI50,SN12K1,17 µM (inactive)
COc1cccc2c1C(=O)c1c(O)c3c(c(O)c1C2=O)C[C@@](O)(/C(C)=N/NC(=O)c1ccccc1)C[C@@H]3OC1CC(N)C(O)C(C)O1 (stereo not given in full),GI50,P388,0.132 µM (active)
same,GI50,P388/ADR,5.61 µM (inactive)
same,GI50,SN12K1,0.0586 µM (active)
CCCCOC(=O)Cn1c(-c2ccccc2)nc2ccccc2c1=O,IC50,cells,12.7 µM (active)
COc1cccc(OC)c1NC(=O)CN1CCN(C)CC1,IC50,[1],100 µM (active)
Cc1c2ccnc(-c3ccccc3)c2cc2c1[nH]c1ccccc12,GI50,P388,2.9 µM (inactive)
same,GI50,P388/ADR,2.63 µM (inactive)
same,GI50,SN12K1,1.39 µM (inactive)
C=CCN(C(=O)Cn1nc(C)n2c(cc3cc(C)ccc32)c1=O)c1ccccc1,CC50,[3],> 50 µM (active)
CCSc1ccc(NC(=O)c2cccnc2)cc1,AC50,INS1,7.23 µM (active)
COc1cc(C=C2C(=O)NC(=O)NC2=O)ccc1OCc1ccc([N+](=O)[O-])cc1,IC50,[1],158 µM (active)
COC(=O)c1cc(NC(S)=NCc2ccc(Cl)cc2)cc(C(=O)OC)c1,CC50,[3],26.3 µM (active)
C/C(=C\c1ccc(C(=O)O)cc1)c1ccc2c(c1)C(C)(C)CCC2(C)C,AC50,Cytochrome P450 1A2,31.6 µM (inconclusive)
same,AC50,[2],3.1 µM (active)
O=C(NCc1ccncc1)c1cc(-c2ccc(Cl)cc2)oc1C(F)(F)F,AC50,INS1,18.6 µM (active)
[N-]=[N+]=CC(=O)OCC(N)C(=O)O (stereo not given),GI50,P388,0.156 µM (active)
same,GI50,P388/ADR,0.352 µM (active)
same,GI50,SN12K1,0.206 µM (active)
CCOC(=O)c1sc(NC(=O)CSc2n[nH]c(-c3ccncc3)n2)c(C#N)c1C,IC50,[4],16.3 µM (active)
same,EC50,[5],8.57 µM (active)
CC1=CN2C(=NC(=O)CC2(C)C(=O)N(CC(=O)NC2CCCC2)c2ccccc2C)C=C1 (stereo not given),IC50,[4],> 47.1 µM (inactive)
same,EC50,[5],> 53 µM (inactive)
Nc1ccc2[nH]c3c(-c4ccccc4)nccc3c2c1,GI50,P388,6.21 µM (inactive)
same,GI50,P388/ADR,19.9 µM (inactive)
same,GI50,SN12K1,22.3 µM (inactive)
C[C@@H]1O[C@@H](O[C@H]2CC[C@]3(C=O)[C@H]4CC[C@]5(C)[C@@H](c6ccc(=O)oc6)CC[C@]5(O)[C@@H]4CC[C@]3(O)C2)[C@H](O)[C@H](O)[C@H]1O[C@@H]1O[C@H](CO)[C@@H](O)[C@H](O)[C@H]1O [HELLEBRIN],GI50,P388,64.7 µM (inactive)
same,GI50,P388/ADR,113 µM (inactive)
same,GI50,SN12K1,0.0375 µM (active)
CC1C(O)C2(Oc3cc4c(c5c3[C@@H](CC5O)[C@H]2C)CCC2Cc3nc5c(nc3C[C@@]42C)CC2CCC3C4=C[C@H]6O[C@@]7(O[C@@](C)(CO)C[C@@H]7O)C(C)[C@@]6(O)[C@]4(C)[C@@H](O)CC3[C@]2(C)C5)OC1(C)C (stereo not given in full),GI50,P388,0.0278 µM (active)
same,GI50,P388/ADR,0.52 µM (active)
same,GI50,SN12K1,0.0278 µM (active)
O=C(N/N=C/c1ccccc1Cl)C1CC1,IC50,[4],> 47.1 µM (inactive)
same,EC50,[5],> 53 µM (inactive)
CCCCC(C)C1CCC2(C)C=CC(=O)C(C)=C2C1O (stereo not given),GI50,P388,> 100 µM (inactive)
same,GI50,P388/ADR,> 100 µM (inactive)
same,GI50,SN12K1,> 100 µM (inactive)
CCOC(=O)c1ccc(N[C@@H]2c3cc4c(cc3C(c3cc(OC)c(O)c(OC)c3)[C@H]3C(=O)OCC32)OCO4)cc1O (stereo not given in full),GI50,P388,< 0.01 µM (active)
same,GI50,P388/ADR,0.227 µM (active)
same,GI50,SN12K1,0.0887 µM (active)
CN=C(S)NNC(=O)COc1cccc(C)c1C,CC50,[3],48.9 µM (active)
CC(C)CN1CCN(Cc2cccc3nccnc23)CC1CCO (stereo not given),IC50,[4],> 47.1 µM (inactive)
same,EC50,[5],> 53 µM (inactive)
O=NN(CCCl)C(=O)NC1CCSc2ccccc21 (stereo not given),GI50,P388,21.1 µM (inactive)
same,GI50,P388/ADR,27.9 µM (inactive)
same,GI50,SN12K1,> 100 µM (inactive)
N#CC1=C(N)Oc2cc(O)c(/C=N/c3ccccc3)cc2C1c1ccccc1 (stereo not given),CC50,[3],9.1 µM (active)
Cc1nc(-c2ccccc2)sc1C(=O)/C=C/c1ccc(Cl)cc1,AC50,[2],4.89 µM (active)
Cc1ccc(C)c(NC(=O)Cn2cnc3c(oc4ccccc43)c2=O)c1,IC50,[4],> 47.1 µM (inactive)
same,EC50,[5],> 53 µM (inactive)
CCOC(=O)c1ccc(NC(=O)c2cccnc2)cc1,AC50,INS1,3.75 µM (active)
Cc1ccc(N(Cc2ccc([N+](=O)[O-])cc2)C(=O)c2ccco2)cc1,IC50,[4],> 47.1 µM (inactive)
same,AC50,Cytochrome P450 2D6,0.562 µM (inconclusive)
same,EC50,[5],> 53 µM (inactive)
same,AC50,Cytochrome P450 3A4,28.2 µM (inconclusive)
CCOC(=O)c1c(-c2ccccc2)csc1NC(=O)C(C)NCCCN1CCOCC1 (stereo not given),IC50,[1],86.1 µM (active)
